Several values for one entry are separate records, joined by “and”; a condition that tells them apart may be missing. Equal entries are not always repeated.
Experiment: photoluminescence quantum yield (fraction); solvent given as SMILES

CC(C)(C)c1ccc(N2c3ccc(C(C)(C)C)cc3B3c4cc(C(C)(C)C)ccc4N(c4ccc(C(C)(C)C)cc4)c4cc(-n5c6ccc(C(C)(C)C)cc6c6cc(C(C)(C)C)ccc65)cc2c43)cc1
photoluminescence quantum yield (in Cc1ccccc1): 0.975

COc1ccc(-c2csc(-c3ccncc3)n2)cc1
photoluminescence quantum yield (in CC#N): 0.002
photoluminescence quantum yield (in CCO): 0.22
photoluminescence quantum yield (in CN(C)C=O): 0.158
photoluminescence quantum yield (in CS(C)=O): 0.163
photoluminescence quantum yield (in Cc1ccccc1): 0.037
photoluminescence quantum yield (in ClCCl): 0.089

CC1=CC(C)=[N+]2C1=C(c1ccc(-c3c4ccccc4c(-c4ccccc4)c4ccccc34)cc1)c1c(C)cc(C)n1[B-]2(F)F
photoluminescence quantum yield (in CC#N): 0.11
photoluminescence quantum yield (in CCCCCC): 0.7
photoluminescence quantum yield (in CCO): 0.37
photoluminescence quantum yield (in CN(C)C=O): 0.13
photoluminescence quantum yield (in Cc1ccccc1): 0.65
photoluminescence quantum yield (in ClCCl): 0.57

COc1cc(/C=C/c2cc(OC)c(-c3nc(-c4ccccc4)c(-c4ccccc4)[nH]3)cc2OC)c(OC)cc1/C=C/c1cc(OC)c(-c2nc(-c3ccccc3)c(-c3ccccc3)[nH]2)cc1OC
photoluminescence quantum yield (in C1CCOC1): 0.54
photoluminescence quantum yield (in CC#N): 0.24
photoluminescence quantum yield (in CN(C)C=O): 0.42
photoluminescence quantum yield (in Cc1ccccc1): 0.63

C1=C2C3=C(C4=[N+]2[B-]2(Oc5ccccc54)Oc4ccccc4-c4c5c(c1n42)C1CCC5CC1)C1CCC3CC1 (centres undefined)
photoluminescence quantum yield (in ClCCl): 0.99

CCCCCCCCCCCCOc1ccc(C#CC(C#Cc2ccc(OCCCCCCCCCCCC)cc2)=Cc2cc(C=C(C#Cc3ccc(OCCCCCCCCCCCC)cc3)C#Cc3ccc(OCCCCCCCCCCCC)cc3)cc(C=C(C#Cc3ccc(OCCCCCCCCCCCC)cc3)C#Cc3ccc(OCCCCCCCCCCCC)cc3)c2)cc1
photoluminescence quantum yield (in CCOC(C)=O): 0.35

c1ccc(Cc2c3ccc(=[N+]4CCCCC4)cc-3oc3cc(N4CCCCC4)ccc23)cc1
photoluminescence quantum yield (in ClCCl): 0.87

CCC1=C(C)C(=O)n2c1cc1c(c(C)c(C(=O)OC)n1C)c2=O
photoluminescence quantum yield (in C1CCCCC1): 0.03
photoluminescence quantum yield (in CO): 0.66
photoluminescence quantum yield (in CS(C)=O): 0.8
photoluminescence quantum yield (in ClC(Cl)Cl): 0.71
photoluminescence quantum yield (in c1ccccc1): 0.18

COc1cc(C2=CC3=C(c4c(C)cc(C)cc4C)c4cc(-c5cc(OC)c(OC)c(OC)c5)c(-c5cc(OC)c(OC)c(OC)c5)n4[B-](F)(F)[N+]3=C2c2cc(OC)c(OC)c(OC)c2)cc(OC)c1OC
photoluminescence quantum yield (in C1CCCCC1): 0.33
photoluminescence quantum yield (in C1CCOC1): 0.08
photoluminescence quantum yield (in CC#N): 0.02
photoluminescence quantum yield (in Cc1ccccc1): 0.16
photoluminescence quantum yield (in ClCCl): 0.05

CCN(CC)c1ccc2cc(-c3nc4cc(C(=O)Nc5cccc(OC)c5)ccc4o3)c(=O)oc2c1
photoluminescence quantum yield (in ClCCl): 0.21

Cc1cc2ccccc2c2c1c1ccccc1n2-c1ccc(C#N)cc1
photoluminescence quantum yield (in ClCCl): 0.04

c1ccc(-n2c3ccccc3c3ccccc32)cc1
photoluminescence quantum yield (in CCO): 0.46

CC[N+](CC)=c1ccc2cc3c(oc-2c1)-c1ccc(N(C)C)cc1CC3
photoluminescence quantum yield (in CCO): 0.618
photoluminescence quantum yield (in ClCCl): 0.724
photoluminescence quantum yield (in O): 0.282

CC(C)(C)c1ccc2c3ccccc3c3cncnc3c2c1
photoluminescence quantum yield (in ClCCl): 0.03

CCOC(=O)c1ccc2c(c1)[nH]c1c3ccc(C(=O)OCC)cc3[nH]c21
photoluminescence quantum yield (in CCCO): 0.57

CCCCCCOc1ccc(-c2cnc(-c3nnc(-c4ccc(OCCCCCC)cc4)o3)o2)cc1
photoluminescence quantum yield (in C1CCCCC1): 0.82
photoluminescence quantum yield (in C1CCOC1): 0.57
photoluminescence quantum yield (in CC#N): 0.75
photoluminescence quantum yield (in CCO): 0.8
photoluminescence quantum yield (in CO): 0.65
photoluminescence quantum yield (in ClC(Cl)Cl): 0.49

COC(=O)c1c(C(=O)OC)c2ccc(C)nn2c1C
photoluminescence quantum yield (in CCCCCC): 0.348

Clc1ccc(/C=C/c2cnc3ccccc3n2)cc1
photoluminescence quantum yield (in ClCCl): 0.01

CCCCCCCCCCCCOc1ccc(C#Cc2ccc(C#Cc3ccc(OCCCCCCCCCCCC)c(OCCCCCCCCCCCC)c3)c3nc4c5ccccc5c5ccccc5c4nc23)cc1OCCCCCCCCCCCC
photoluminescence quantum yield (in C1CCOC1): 0.23
photoluminescence quantum yield (in Cc1ccccc1): 0.19
photoluminescence quantum yield (in ClCCl): 0.26

c1cc2ccc3ccc(OP4(Oc5ccc6ccc7cccc8ccc5c6c78)=NP(Oc5ccc6ccc7cccc8ccc5c6c78)(Oc5ccc6ccc7cccc8ccc5c6c78)=NP(Oc5ccc6ccc7cccc8ccc5c6c78)(Oc5ccc6ccc7cccc8ccc5c6c78)=N4)c4ccc(c1)c2c34
photoluminescence quantum yield (in ClCCl): 0.92

CC(C)[Si](C#Cc1ccc2c(C#C[Si](C(C)C)(C(C)C)C(C)C)cc3c4cc(C#C[Si](C(C)C)(C(C)C)C(C)C)ccc4c(C#C[Si](C(C)C)(C(C)C)C(C)C)cc3c2c1)(C(C)C)C(C)C
photoluminescence quantum yield (in ClCCl): 0.741

Clc1ccc(/C=C/c2ccc(-c3nc4c5cccnc5c5ncccc5c4[nH]3)cc2)cc1
photoluminescence quantum yield (in C1CCOC1): 0.42
photoluminescence quantum yield (in CC#N): 0.26
photoluminescence quantum yield (in CO): 0.16
photoluminescence quantum yield (in ClCCl): 0.34

C(#Cc1cccs1)C(C#Cc1cccs1)=Cc1ccc(C=C(C#Cc2cccs2)C#Cc2cccs2)cc1
photoluminescence quantum yield (in ClC(Cl)Cl): 0.32 and 0.25

COC(=O)CNC(=O)c1nc2c(N(C)C)nc(N(C)C)nc2n1Cc1ccccc1
photoluminescence quantum yield (in C1COCCO1): 0.95
photoluminescence quantum yield (in CC#N): 0.95
photoluminescence quantum yield (in CO): 0.9
photoluminescence quantum yield (in ClCCl): 0.91

CCCCCCC(CCCCCC)N1C(=O)c2cccc3c(-c4ccc(-c5ccc(OC)cc5)cc4)ccc(c23)C1=O
photoluminescence quantum yield (in CCCCCC): 0.5
photoluminescence quantum yield (in CCCCCCCCCCCCCC): 0.5
photoluminescence quantum yield (in CCCCCCCCCCCO): 0.56
photoluminescence quantum yield (in CCCCO): 0.16
photoluminescence quantum yield (in CN(C)C=O): 0.15
photoluminescence quantum yield (in Cc1ccccc1): 0.4
photoluminescence quantum yield (in ClC(Cl)Cl): 0.67

C(#Cc1cc2ccc3cc(C#Cc4ccccc4)cc4ccc(c1)c2c34)c1ccccc1
photoluminescence quantum yield (in Cc1ccccc1): 0.29

CCCc1c(C(=O)c2ccc3c4c(cccc24)-c2cccc4c2C3CC=C4)c2ccc3cccc4c5cccc6ccc1c(c65)c2c34 (centres undefined)
photoluminescence quantum yield (in ClCCl): 0.058

c1ccc(-c2ccc(-c3ccc(-n4c5ccccc5c5ccccc54)cc3)c3nsnc23)cc1
photoluminescence quantum yield (in C1CCOC1): 0.426
photoluminescence quantum yield (in CC(C)=O): 0.059
photoluminescence quantum yield (in CCCCCC): 0.697
photoluminescence quantum yield (in CCOCC): 0.599

CCN(CC)c1ccc(-c2nc(Oc3ccc(-c4nc5ccccc5[nH]4)cc3)nc(Oc3ccc(-c4nc5ccccc5[nH]4)cc3)n2)cc1
photoluminescence quantum yield (in CN(C)C=O): 0.197

COc1ccc(-c2csc(/C(C#N)=C/c3ccc(Cl)cc3Cl)n2)cc1
photoluminescence quantum yield (in CC#N): 0.031

CSc1ccc(/C=C/c2ccncn2)cc1
photoluminescence quantum yield (in ClCCl): 0.01

FC(F)(F)C(F)(F)C(F)(F)C(F)(F)C(F)(F)C(F)(F)C(F)(F)C(F)(F)CCOc1nnc(Cl)nn1
photoluminescence quantum yield (in ClCCl): 0.44
photoluminescence quantum yield (in OCC(F)(F)F): 0.28

CC(C)[Si](C#Cc1c2cc3ccccc3cc2c(C#C[Si](C(C)C)(C(C)C)C(C)C)c2nc3c(ccc4ccccc43)nc12)(C(C)C)C(C)C
photoluminescence quantum yield (in CCCCCC): 0.22

CC(C)(C)c1ccc(-c2nnc(-c3c(-n4c5ccccc5c5ccccc54)c(-n4c5ccccc5c5ccccc54)c(-n4c5ccccc5c5ccccc54)c(-n4c5ccccc5c5ccccc54)c3-n3c4ccccc4c4ccccc43)o2)cc1
photoluminescence quantum yield (in Cc1ccccc1): 0.13

CN(C)c1ccc(C#Cc2cc3ccc4cc(C#Cc5ccc(N(C)C)cc5)cc5ccc(c2)c3c45)cc1
photoluminescence quantum yield (in Cc1ccccc1): 0.39

N#Cc1c(-n2nnc3c2CCC2C(CC3)[C@@H]2CO)n([C@H]2C[C@H](O)[C@@H](CO)O2)c2ncnc(N)c12 (some centres undefined)
photoluminescence quantum yield (in CO): 0.014

COC1=[N+]2C(=C(c3ccccc3)c3ccc(OC)n3[B-]2(F)F)C=C1SC#N
photoluminescence quantum yield (in CC#N): 0.11
photoluminescence quantum yield (in CCCCCC): 0.15
photoluminescence quantum yield (in CCOC(C)=O): 0.14
photoluminescence quantum yield (in CO): 0.14
photoluminescence quantum yield (in ClCCl): 0.19

CC1(C)Oc2c(c3nc4ccccc4nc3c3ccccc23)CC1Br (centres undefined)
photoluminescence quantum yield (in C1CCCCC1): 0.28
photoluminescence quantum yield (in C1CCOC1): 0.39
photoluminescence quantum yield (in C1COCCO1): 0.44
photoluminescence quantum yield (in CC#N): 0.49
photoluminescence quantum yield (in CC(C)O): 0.39
photoluminescence quantum yield (in CCCCCC): 0.25
photoluminescence quantum yield (in CN(C)C=O): 0.34
photoluminescence quantum yield (in CO): 0.57
photoluminescence quantum yield (in c1ccccc1): 0.28

CC(C)(C)c1cc(C(C)(C)C)c2oc3c(c2c1)C=CN1C(=O)C2=C4c5oc6c(C(C)(C)C)cc(C(C)(C)C)cc6c5C=CN4C(=O)C2=C31
photoluminescence quantum yield (in CN(C)C=O): 0.6
photoluminescence quantum yield (in ClC(Cl)Cl): 0.99

CCCCN1C(=O)c2cccc3c(C#CC#Cc4ccc5c6c(cccc46)C(=O)N(CCCC)C5=O)ccc(c23)C1=O
photoluminescence quantum yield (in ClCCl): 0.81

Oc1ccc2ccccc2c1/C=N/c1ccccc1/N=C/c1c(O)ccc2ccccc12
photoluminescence quantum yield (in CC#N): 0.3

CN(C)c1ccc(/C=C/c2cc(/C=C/c3ccc(N(C)C)cc3)nc(/C=C/c3ccccc3)n2)cc1
photoluminescence quantum yield (in ClCCl): 0.72

CCC1(CC)c2cc(/C=C/c3ccc(/C=C/c4ccc5c(c4)C(CC)(CC)c4cc(N6c7ccccc7Sc7ccccc76)ccc4-5)cc3)ccc2-c2ccc(N3c4ccccc4Sc4ccccc43)cc21
photoluminescence quantum yield (in C1CCOC1): 0.33
photoluminescence quantum yield (in CC#N): 0.26
photoluminescence quantum yield (in CCCCCC): 0.72
photoluminescence quantum yield (in Cc1ccccc1): 0.58
photoluminescence quantum yield (in ClCCl): 0.33

F[B-]1(F)Oc2ccccc2-c2cc(-n3c4ccc(-c5ccccc5)cc4c4cc(-c5ccccc5)ccc43)cc[n+]21
photoluminescence quantum yield (in O=P(c1ccccc1)(c1ccccc1)c1ccccc1Oc1ccccc1P(=O)(c1ccccc1)c1ccccc1): 0.7

CCOC(=O)c1cc(C(=O)OCC)c2cc(C)ccc2n1
photoluminescence quantum yield (in CCO): 0.022

CCCCN1/C(=C/C=C/C2=[N+](C)c3ccccc3C2(C)C)C(C)(C)c2cc(OC)ccc21
photoluminescence quantum yield (in CS(C)=O): 0.03

Cc1ccc(-n2c3ccc(-c4ccc(-c5nc6ccccc6n5-c5ccccc5)cc4)cc3c3cc(-c4ccc(-c5nc6ccccc6n5-c5ccccc5)cc4)ccc32)cc1
photoluminescence quantum yield (in Cc1ccccc1): 0.65

CC1=CC(C)=[N+]2C1=C(c1c3ccccc3c(-c3ccccc3)c3ccccc13)c1c(C)cc(C)n1[B-]2(F)F
photoluminescence quantum yield (in CC#N): 0.007
photoluminescence quantum yield (in CCCCCC): 0.9
photoluminescence quantum yield (in CCO): 0.02
photoluminescence quantum yield (in CN(C)C=O): 0.01
photoluminescence quantum yield (in Cc1ccccc1): 0.79
photoluminescence quantum yield (in ClCCl): 0.024

COc1ccc(N(c2ccc(OC)cc2)c2ccc(-c3ccc(-c4ccc(-c5ccc(-c6ccc(N(c7ccc(OC)cc7)c7ccc(OC)cc7)cc6)s5)c5nsnc45)s3)cc2)cc1
photoluminescence quantum yield (in ClC(Cl)Cl): 0.18

COc1cccc2cc(C)c3c4ccccc4[nH]c3c12
photoluminescence quantum yield (in ClCCl): 0.284

CC(C)(C)c1ccc2c(c1)Cc1cc(C(C)(C)C)ccc1-2
photoluminescence quantum yield (in C1CCCCC1): 0.7
